pIC50: −log10 of the molar value.
What was measured:
[1] = biological target: T1, beta-catenin/TCF4 engagement (Homo sapiens, UniProt P35222); assay: Nano-BRET target engagement assay (B-cat-Halo & TCF4-Luc in HEK293 cells); type: cell-based; conditions: absolute IC50; read-out: NanoBRET Abs IC50
T1 construct: expressed in transfected cells; host or cells: HEK293
T1 sequence (P35222 1-781): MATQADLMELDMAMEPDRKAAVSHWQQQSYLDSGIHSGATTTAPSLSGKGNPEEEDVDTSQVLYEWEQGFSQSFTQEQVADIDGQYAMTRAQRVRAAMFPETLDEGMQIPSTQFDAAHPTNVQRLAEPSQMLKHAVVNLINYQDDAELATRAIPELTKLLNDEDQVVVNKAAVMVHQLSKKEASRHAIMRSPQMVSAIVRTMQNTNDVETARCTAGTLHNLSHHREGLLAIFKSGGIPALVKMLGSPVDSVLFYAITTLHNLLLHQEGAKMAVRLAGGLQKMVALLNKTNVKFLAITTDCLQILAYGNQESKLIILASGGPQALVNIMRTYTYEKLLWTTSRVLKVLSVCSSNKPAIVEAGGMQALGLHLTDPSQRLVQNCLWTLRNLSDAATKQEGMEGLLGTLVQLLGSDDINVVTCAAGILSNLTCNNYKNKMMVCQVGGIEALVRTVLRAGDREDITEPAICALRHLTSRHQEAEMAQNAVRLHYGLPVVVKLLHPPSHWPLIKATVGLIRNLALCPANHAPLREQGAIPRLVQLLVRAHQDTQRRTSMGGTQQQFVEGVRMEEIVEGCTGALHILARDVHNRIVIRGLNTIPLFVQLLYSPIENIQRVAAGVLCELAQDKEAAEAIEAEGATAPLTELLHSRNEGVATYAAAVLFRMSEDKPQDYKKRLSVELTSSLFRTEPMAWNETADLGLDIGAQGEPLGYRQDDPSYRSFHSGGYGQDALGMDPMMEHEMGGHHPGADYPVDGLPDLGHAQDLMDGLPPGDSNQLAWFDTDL

[2] = biological target: T2, full-length beta-Catenin (Uniprot ID P35222) (Homo sapiens, UniProt P35222); assay: Fluorescence polarization IC50 (beta-catenin / 5FAM-TCF4 10-53 competition); type: binding; conditions: fluorescence polarization; read-out: beta-Catenin FP IC50
T2 construct: 10 nM full-length beta-Catenin (Uniprot ID P35222)
T2 sequence (P35222 1-781): T1 sequence (P35222 1-781)

| pIC50 [1] | pIC50 [2] | Compound |
| --- | --- | --- |
| < 4.70 | 7.24 | CCN(CC(=O)O)C[C@@H]1NC(=O)[C@H](CC(=O)O)NC(=O)C2(CCCC=CCCCCCC[C@@](C)(C(=O)N[C@@H](Cc3ccsc3)C(=O)N[C@@H](Cc3csc4ccccc34)C(=O)N[C@@H](CCC(N)=O)C(N)=O)NC(=O)[C@H](CC(N)=O)NC(=O)[C@H](Cc3ccccc3)NC(=O)[C@H](C)NC(=O)[C@H](C)NC1=O)CCCC=CC[C@]1(CCCN1C(C)=O)C(=O)N[C@@H](CC(=O)O)C(=O)N[C@@H](CC(C)(C)C)C(=O)N2 (stereo partly drawn) [I-1627, Ac-PL3-Asp-Npg-B5-Asp-[Et]GA-Ala-Ala-Phe-Asn-S8-3Thi-BztA-Gln-NH2] |
| < 4.70 | 7.74 | CCN(CC(=O)O)C[C@@H]1NC(=O)[C@H](CC(=O)O)NC(=O)C2(CCCC=CCCCCCC[C@@](C)(C(=O)N[C@@H](Cc3ccsc3)C(=O)N[C@@H](Cc3csc4ccccc34)C(=O)N[C@@H](CCC(N)=O)C(N)=O)NC(=O)[C@H](CC(N)=O)NC(=O)[C@H](Cc3ccccc3)NC(=O)[C@H](C)NC(=O)[C@H](C)NC1=O)CCCC=CC[C@]1(CCCN1C(C)=O)C(=O)N[C@@H](CC(=O)O)C(=O)N[C@@H](CC(C)(C)C)C(=O)N2 (stereo partly drawn) [I-1628, Ac-PL3-Asp-Npg-B5-Asp-[Et]GA-Ala-Ala-Phe-Asn-S8-3Thi-BztA-Gln-NH2] |
| 5.30 | 7.94 | CC(=O)N1CCC[C@]12CC=CCCCC1(CCCC=CCCCOC(=O)N3CC[C@@](C(=O)N[C@@H](Cc4ccsc4)C(=O)N[C@@H](Cc4csc5ccccc45)C(=O)N[C@@H](CCC(N)=O)C(N)=O)(C3)NC(=O)[C@H](CC(C)C)NC(=O)[C@H](Cc3ccccc3)NC(=O)[C@H](C)NC(=O)[C@H](C)NC(=O)[C@H](CN(CC(=O)O)Cc3ccccc3)NC(=O)[C@H](CC(=O)O)NC1=O)NC(=O)[C@H](CC(C)(C)C)NC(=O)[C@H](CC(=O)O)NC2=O (stereo partly drawn) [I-1630, Ac-PL3-Asp-Npg-B5-Asp-[Bn]GA-Ala-Ala-Phe-Leu-PyrS2-3Thi-BztA-Gln-NH2] |
| 4.52 | 8.00 | CC(=O)N1CCC[C@]12CC=CCCCC1(CCCC=CCCCOC(=O)N3CC[C@@](C(=O)N[C@@H](Cc4ccsc4)C(=O)N[C@@H](Cc4csc5ccccc45)C(=O)N[C@@H](CCC(N)=O)C(N)=O)(C3)NC(=O)[C@H](CC(C)C)NC(=O)[C@H](Cc3ccccc3)NC(=O)[C@H](C)NC(=O)[C@H](C)NC(=O)[C@H](CN(C)CC(=O)O)NC(=O)[C@H](CC(=O)O)NC1=O)NC(=O)[C@H](CC(C)(C)C)NC(=O)[C@H](CC(=O)O)NC2=O (stereo partly drawn) [I-1631, Ac-PL3-Asp-Npg-B5-Asp-[Me]GA-Ala-Ala-Phe-Leu-PyrS2-3Thi-BztA-Gln-NH2] |
| 5.28 | 8.00 | CC(=O)N1CCC[C@]12CC=CCCCC1(CCCC=CCCCOC(=O)N3CC[C@@](C(=O)N[C@@H](Cc4ccsc4)C(=O)N[C@@H](Cc4csc5ccccc45)C(=O)N[C@@H](CCC(N)=O)C(N)=O)(C3)NC(=O)[C@H](CC(C)C)NC(=O)[C@H](Cc3ccccc3)NC(=O)[C@H](C)NC(=O)[C@H](C)NC(=O)[C@H](CN(CCC(F)(F)F)CC(=O)O)NC(=O)[C@H](CC(=O)O)NC1=O)NC(=O)[C@H](CC(C)(C)C)NC(=O)[C@H](CC(=O)O)NC2=O (stereo partly drawn) [I-1633, Ac-PL3-Asp-Npg-B5-Asp-[Tfp]GA-Ala-Ala-Phe-Leu-PyrS2-3Thi-BztA-Gln-NH2] |
| 4.78 | 8.05 | CC(=O)N1CCC[C@]12CC=CCCCC1(CCCC=CCCCOC(=O)N3CC[C@@](C(=O)N[C@@H](Cc4ccsc4)C(=O)N[C@@H](Cc4csc5ccccc45)C(=O)N[C@@H](CCC(N)=O)C(N)=O)(C3)NC(=O)[C@H](CC(N)=O)NC(=O)[C@H](Cc3ccccc3)NC(=O)[C@H](C)NC(=O)[C@H](C)NC(=O)[C@H](CN(CCCC(F)(F)F)CC(=O)O)NC(=O)[C@H](CC(=O)O)NC1=O)NC(=O)[C@H](CC(C)(C)C)NC(=O)[C@H](CC(=O)O)NC2=O (stereo partly drawn) [I-1634, Ac-PL3-Asp-Npg-B5-Asp-[Tfb]GA-Ala-Ala-Phe-Asn-PyrS2-3Thi-BztA-Gln-NH2] |
| 4.69 | 8.15 | CC(=O)N1CCC[C@]12CC=CCCCC1(CCCC=CCCCOC(=O)N3CC[C@@](C(=O)N[C@@H](Cc4ccsc4)C(=O)N[C@@H](Cc4csc5ccccc45)C(=O)N[C@@H](CCC(N)=O)C(N)=O)(C3)NC(=O)[C@H](CC(N)=O)NC(=O)[C@H](Cc3ccccc3)NC(=O)[C@H](C)NC(=O)[C@H](C)NC(=O)[C@H](CN(CC(=O)O)Cc3ccccc3)NC(=O)[C@H](CC(=O)O)NC1=O)NC(=O)[C@H](CC(C)(C)C)NC(=O)[C@H](CC(=O)O)NC2=O (stereo partly drawn) [I-1635, Ac-PL3-Asp-Npg-B5-Asp-[Bn]GA-Ala-Ala-Phe-Asn-PyrS2-3Thi-BztA-Gln-NH2] |
| < 4.70 | 7.77 | CC(=O)N1CCC[C@]12CC=CCCCC1(CCCC=CCCCOC(=O)N3CC[C@@](C(=O)N[C@@H](Cc4ccsc4)C(=O)N[C@@H](Cc4csc5ccccc45)C(=O)N[C@@H](CCC(N)=O)C(N)=O)(C3)NC(=O)[C@H](CC(N)=O)NC(=O)[C@H](Cc3ccccc3)NC(=O)[C@H](C)NC(=O)[C@H](C)NC(=O)[C@H](CN(C)CC(=O)O)NC(=O)[C@H](CC(=O)O)NC1=O)NC(=O)[C@H](CC(C)(C)C)NC(=O)[C@H](CC(=O)O)NC2=O (stereo partly drawn) [I-1636, Ac-PL3-Asp-Npg-B5-Asp-[Me]GA-Ala-Ala-Phe-Asn-PyrS2-3Thi-BztA-Gln-NH2] |
| < 4.70 | 7.96 | CC(=O)N1CCC[C@]12CC=CCCCC1(CCCC=CCCCOC(=O)N3CC[C@@](C(=O)N[C@@H](Cc4ccsc4)C(=O)N[C@@H](Cc4csc5ccccc45)C(=O)N[C@@H](CCC(N)=O)C(N)=O)(C3)NC(=O)[C@H](CC(N)=O)NC(=O)[C@H](Cc3ccccc3)NC(=O)[C@H](C)NC(=O)[C@H](C)NC(=O)[C@H](CN(C)CC(=O)O)NC(=O)[C@H](CC(=O)O)NC1=O)NC(=O)[C@H](CC(C)(C)C)NC(=O)[C@H](CC(=O)O)NC2=O (stereo partly drawn) [I-1637, Ac-PL3-Asp-Npg-B5-Asp-[Me]GA-Ala-Ala-Phe-Asn-PyrS2-3Thi-BztA-Gln-NH2] |
| 4.84 | 8.05 | CC(=O)N1CCC[C@]12CC=CCCCC1(CCCC=CCCCOC(=O)N3CC[C@@](C(=O)N[C@@H](Cc4ccsc4)C(=O)N[C@@H](Cc4csc5ccccc45)C(=O)N[C@@H](CCC(N)=O)C(N)=O)(C3)NC(=O)[C@H](CC(N)=O)NC(=O)[C@H](Cc3ccccc3)NC(=O)[C@H](C)NC(=O)[C@H](C)NC(=O)[C@H](CN(CC(=O)O)Cc3c(F)c(F)c(F)c(F)c3F)NC(=O)[C@H](CC(=O)O)NC1=O)NC(=O)[C@H](CC(C)(C)C)NC(=O)[C@H](CC(=O)O)NC2=O (stereo partly drawn) [I-1638, Ac-PL3-Asp-Npg-B5-Asp-[Pfbn]GA-Ala-Ala-Phe-Asn-PyrS2-3Thi-BztA-Gln-NH2] |
| 4.48 | 7.89 | CC(=O)N1CCC[C@]12CC=CCCCC1(CCCC=CCCCOC(=O)N3CC[C@@](C(=O)N[C@@H](Cc4ccsc4)C(=O)N[C@@H](Cc4csc5ccccc45)C(=O)N[C@@H](CCC(N)=O)C(N)=O)(C3)NC(=O)[C@H](CC(N)=O)NC(=O)[C@H](Cc3ccccc3)NC(=O)[C@H](C)NC(=O)[C@H](C)NC(=O)[C@H](CN(CC(=O)O)Cc3c(F)c(F)c(F)c(F)c3F)NC(=O)[C@H](CC(=O)O)NC1=O)NC(=O)[C@H](CC(C)(C)C)NC(=O)[C@H](CC(=O)O)NC2=O (stereo partly drawn) [I-1639, Ac-PL3-Asp-Npg-B5-Asp-[Pfbn]GA-Ala-Ala-Phe-Asn-PyrS2-3Thi-BztA-Gln-NH2] |
